{"source": "ChEMBL document CHEMBL4665736", "about": "“Synthesis and structural insights into the binding mode of the albomycin δ1 core and its analogues in complex with their target aminoacyl-tRNA synthetase” (Bioorg Med Chem, 2020)", "key": {"[1]": {"target": "Serine--tRNA ligase (Escherichia coli (strain K12)) (UniProt P0A8L1)", "sequence (P0A8L1 whole entry, looked up)": "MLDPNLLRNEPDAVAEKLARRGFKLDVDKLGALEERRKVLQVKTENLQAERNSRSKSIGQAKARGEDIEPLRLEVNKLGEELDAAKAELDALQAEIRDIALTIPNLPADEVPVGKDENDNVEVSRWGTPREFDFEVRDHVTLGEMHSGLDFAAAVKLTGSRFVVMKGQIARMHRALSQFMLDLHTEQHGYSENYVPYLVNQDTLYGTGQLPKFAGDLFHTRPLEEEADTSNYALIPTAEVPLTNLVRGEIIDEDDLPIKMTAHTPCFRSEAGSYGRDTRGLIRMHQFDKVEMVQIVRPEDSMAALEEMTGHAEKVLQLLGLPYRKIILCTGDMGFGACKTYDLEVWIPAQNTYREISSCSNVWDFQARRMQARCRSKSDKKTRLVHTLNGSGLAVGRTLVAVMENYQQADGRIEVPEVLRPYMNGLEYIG", "assay": "(§1) Inhibition of recombinant Escherichia coli BL21(DE3) seryl-tRNA synthetase expressed in Escherichia coli Rosetta 2 (DE3) assessed as reduction in tRNA aminoacylation at 10 uM preincubated for 10 mins in presence of [14C]-serine and tRNA and iPPase followed by ATP addition by scintillation counting method relative to control"}, "[2]": {"tested_on": "Escherichia coli BL21(DE3)", "assay": "as §1, with “isoleucyl-tRNA” for “seryl-tRNA”, “[14C]-isoleucin” for “[14C]-serine”, “addition and measured after 6 mins” for “addition”, “method” for “method relative to control”", "conditions": "time 16.0 min"}, "[3]": {"target": "Serine--tRNA ligase (Escherichia coli (strain K12)) (UniProt P0A8L1)", "assay": "as §1, with “at 0.1” for “at 10”"}, "[4]": {"target": "Serine--tRNA ligase (Escherichia coli (strain K12)) (UniProt P0A8L1)", "assay": "as §1, with “at 1” for “at 10”"}, "[5]": {"tested_on": "Escherichia coli BL21(DE3)", "assay": "as §1, with “BL21(DE3) aspartyl-tRNA” for “BL21(DE3) seryl-tRNA”, “at 1” for “at 10”, “of [14C]-aspartate” for “of [14C]-serine”, “method” for “method relative to control”"}, "[6]": {"assay": "as §1, with “aspartyl-tRNA” for “seryl-tRNA”, “aminoacylation” for “aminoacylation at 10 uM”, “[14C]-aspartate” for “[14C]-serine”, “method” for “method relative to control”"}, "[7]": {"tested_on": "Escherichia coli BL21(DE3)", "assay": "as §1, with “aspartyl-tRNA” for “seryl-tRNA”, “nM” for “uM”, “[14C]-aspartate” for “[14C]-serine”, “method” for “method relative to control”"}, "[8]": {"tested_on": "Escherichia coli BL21(DE3)", "assay": "as §1, with “BL21(DE3) aspartyl-tRNA” for “BL21(DE3) seryl-tRNA”, “at 0.1” for “at 10”, “of [14C]-aspartate” for “of [14C]-serine”"}}, "note": "Calls of active or inactive are those of the source. The rule behind the calls is not given here."}
{"smiles": "Cn1c(=O)ccn([C@@H]2S[C@H]([C@H](O)[C@H](NC(=O)[C@@H](N)CO)C(=O)O)[C@H](O)[C@H]2O)c1=O", "values": [{"measurement": "inhibition", "setting": "[1]", "result": 25, "unit": "%"}]}
{"smiles": "CC[C@H](C)[C@H](N)C(=O)NC(C(=O)O)C(O)[C@H]1S[C@@H](n2ccc(=O)n(C)c2=O)[C@H](O)[C@H]1O", "note": "(mixture of isomers)", "values": [{"measurement": "inhibition", "setting": "[2]", "result": "inactive"}]}
{"smiles": "Cn1c(=O)ccn([C@@H]2S[C@H]([C@@H](O)[C@@H](NC(=O)[C@@H](N)CO)C(=O)O)[C@H](O)[C@H]2O)c1=O", "values": [{"measurement": "inhibition", "setting": "[3]", "result": 50, "unit": "%"}, {"measurement": "inhibition", "setting": "[4]", "result": 80, "unit": "%"}]}
{"smiles": "Cn1c(=O)ccn([C@@H]2S[C@H]([C@H](O)[C@H](NC(=O)[C@@H](N)CC(=O)O)C(=O)O)[C@H](O)[C@H]2O)c1=O", "values": [{"measurement": "inhibition", "setting": "[5]", "result": "inactive"}]}
{"smiles": "Cn1c(=O)ccn([C@@H]2S[C@H]([C@@H](O)[C@@H](NC(=O)[C@@H](N)CC(=O)O)C(=O)O)[C@H](O)[C@H]2O)c1=O", "values": [{"measurement": "IC50", "setting": "[6]", "result": 31, "unit": "nM"}, {"measurement": "inhibition", "setting": "[7]", "result": "Active"}, {"measurement": "inhibition", "setting": "[8]", "result": 60, "unit": "%"}]}
